Measured values reported in PMC8406298, “Discovery of Fungus-Specific Targets and Inhibitors Using Chemical Phenotyping of Pathogenic Spore Germination” (mBio, 2021).

How the values were obtained:
[1] = tested on: Cryptococcus yeast (CHY3833 and CHY3836); assay: Yeast replication secondary screen (OD600); assay type: cell-based, Cryptococcus neoformans serotype D (deneoformans); details: 10 μM, 12 h at 30°C
Description: (ii) Yeast replication. CHY3833 and CHY3836 were each grown in YPD liquid overnight at 30°C to saturation and then resuspended in 0.5× YPD at an OD600 of 0.005. Strains were aliquoted into 384-well plates with inhibitors and grown for 12 h at 30°C at […] before OD600 readings were taken. Compounds that caused a >10% decrease in growth were considered yeast growth inhibitors.

[2] = tested on: normal human dermal fibroblasts (NHDF) cells; assay: Fibroblast cytotoxicity (CellTiter-Glo); assay type: cell-based; details: 10 µM
Description: PrimaPure normal human dermal fibroblasts (NHDF) cells (Genlatis PH10605A) were cultured and passaged in fibroblast growth medium (Genlatis PM116500) according to the manufacturer’s protocol. NHDF cells (1 × 10^3 per well) were plated in a 384-well plate in cell culture medium. The cells were incubated with each compound of interest at 10 μM concentration for 72 h at 37°C and 5% CO2. Following treatment, CellTiter-Glo (Promega) reagent was used to assay ATP-dependent luminescence and thus provide a measure of cell viability. […] For cytotoxicity dose-response curves (Fig. 4C and Fig. 5C), compounds were titrated from 80 μM to 0.5 μM in duplicates.

Structure (SMILES)	Yeast Inhibition: % Inhibition [1] [%]	Cytotoxicity: Relative Cell Viability (% of Negative Control) [2]
CC(C)C(=O)Nc1nnc(SCc2cccc(F)c2)s1 [compound 4086498]	20.2	106.8 % of Negative Control
CCCCCCCNS(=O)(=O)c1ccc(OCC)cc1 [compound 4102712]	46.8	43.9 % of Negative Control
O=C(N=C1C(Cl)=C(Cl)C(=O)c2ccccc21)c1ccc(Cl)cc1 [compound 4111118]	100.7	7.1 % of Negative Control
O=C(Nc1cccc(C(F)(F)F)c1)C(Cl)C(=O)c1ccccc1 (stereo not shown) [compound 4162926]	101.5	20.8 % of Negative Control
N#CC(C#N)=NNc1cccc(Br)c1 [compound 4199189]	101.2	31.1 % of Negative Control
c1ccc(-c2nc([P+](c3ccccc3)(c3ccccc3)c3ccccc3)c(N3CCCCCC3)o2)cc1 [compound 4345313]	101.2	28.8 % of Negative Control
CCSc1oc(-c2ccco2)nc1[P+](c1ccccc1)(c1ccccc1)c1ccccc1 [compound 4360162]	72.3	41.9 % of Negative Control
Cc1cc(C)c(S(=O)(=O)Nc2nc(C(F)(F)F)cs2)c(C)c1 [compound 4413055]	9.5	49.5 % of Negative Control
Nc1c(-c2ccccc2)sc2nc(-c3ccccc3)cc[n+]12 [compound 4458495]	87.8	52.5 % of Negative Control
CCC(OCC(O)CN1CCC(Cc2ccccc2)CC1)c1ccccc1 (stereo not shown) [compound 4471873]	82.2	78.8 % of Negative Control
COC(=O)c1c(NC(=O)c2ccc(C(C)(C)C)cc2)sc2c1CCN(C(C)C)C2 [compound 4684724]	50.4	34.9 % of Negative Control
CN(Cc1ccccc1)C(=O)COc1ccc(Br)cc1 [compound 4690650]	25.9	66.8 % of Negative Control
Clc1ccc2nc(Nc3ccncc3)nc(-c3ccccc3)c2c1 [compound 4714160]	14.9	90.5 % of Negative Control
Cc1ccc2cc(CCC#N)c(Cl)nc2c1 [compound 4736829]	62.6	96.3 % of Negative Control
O=[N+]([O-])CC(SCCO)c1ccc(O)cc1 (stereo not shown) [compound 4737365]	99.2	25.2 % of Negative Control
C=C(C)Cn1c(C2CC(=O)N(c3ccccc3F)C2)nc2ccccc21 (stereo not shown) [compound 4754109]	6.6	95.9 % of Negative Control
COc1cc(-c2c(C#N)c(N)nc3c2c(C)nn3-c2ccc(C)cc2)cc(OC)c1OC [compound 4893324]	-3.0	84.7 % of Negative Control
COc1cccc2cc(-c3csc(NN=C4CCN(C)CC4)n3)c(=O)oc12 [compound 4913014]	99.6	68.7 % of Negative Control
COc1ccc(/C=C/c2nc3ccccc3[nH]2)cc1 [compound 5769808]	70.2	14.4 % of Negative Control
C/C=C/c1ccc(OCCn2cnc3ccccc32)c(OC)c1 [compound 5769972]	79.1	97.3 % of Negative Control
CN(C)/C=C/c1cc(=S)c2ccccc2s1 [compound 5991625]	65.3	72.5 % of Negative Control
NC(=O)c1ccsc1NC(=O)/C=C/c1ccccc1 [compound 6104220]	51.7	50.8 % of Negative Control
C(=C\c1cccs1)/c1nnc(-c2cccs2)o1 [compound 6263817]	49.0	84.3 % of Negative Control
COc1ccc(Nc2nc3ccc(OC)cc3s2)cc1 [compound 7086348]	31.0	91.3 % of Negative Control

Structure (SMILES)	Yeast Inhibition: % Inhibition [1] [%]	Cytotoxicity: Relative Cell Viability (% of Negative Control) [2]
O=S(=O)(NCc1csc(-c2ccccc2)n1)c1cc(Cl)ccc1Cl [compound 7119035]	38.8	89.2 % of Negative Control
CC(=O)c1cccc(NC(=O)c2cc(Cl)sc2Cl)c1 [compound 7120750]	72.7	79.8 % of Negative Control
NC(=O)c1ccsc1NC(=O)c1ccc(Cl)cc1Cl [compound 7167022]	52.4	83.5 % of Negative Control
O=C(COc1coc(CN2CCc3ccccc32)cc1=O)OCc1ccccc1 [compound 7178481]	15.8	88.3 % of Negative Control
O=C(/C=C/c1cccc(F)c1)c1ccc[nH]1 [compound 7185492]	99.0	40.0 % of Negative Control
O=C(/C=C/c1cccc(F)c1)c1cccs1 [compound 7185494]	101.7	45.7 % of Negative Control
O=C(Nc1nc2c(Br)cccc2s1)C1CC1 [compound 7202929]	16.5	66.1 % of Negative Control
CCCC(=O)N1CCN(c2nc3c(C)c(Cl)ccc3s2)CC1 [compound 7294823]	31.5	104.9 % of Negative Control
CCCc1cc(C(=O)OC)c(N2C(=O)C=CC2=O)s1 [compound 7456205]	101.6	4.1 % of Negative Control
c1ccc(Cn2nnc3c(Sc4ncco4)ncnc32)cc1 [compound 7471335]	101.6	4.1 % of Negative Control
Cc1nc(-c2ccc(F)cc2)sc1CCNC(=O)c1ccc(Br)o1 [compound 7503016]	20.4	97.2 % of Negative Control
Cc1ccc(NS(=O)(=O)N2CCCCCC2)cc1Cl [compound 8720355]	45.8	71.9 % of Negative Control
CCc1ccccc1NC(=O)c1cc(C)oc1C [compound 8839503]	37.3	103.5 % of Negative Control
COc1ccc(CCNC(=O)c2c(O)nc3ccccn3c2=O)cc1OC [compound 16010290]	-0.7	103.5 % of Negative Control
O=C(C1COc2ccccc2O1)N1CCN(c2nc3c(F)cccc3s2)CC1 (stereo not shown) [compound 16032794]	5.2	115.2 % of Negative Control
CCOC(=O)c1ccc(N2C(=O)CC(SCC(=O)Nc3ccc(S(N)(=O)=O)cc3)C2=O)cc1 (stereo not shown) [compound 16187117]	83.7	118.0 % of Negative Control
O=C1NC(=S)S/C1=C\c1ccc(OC(F)(F)F)cc1 [compound 16433415]	82.9	79.7 % of Negative Control
OC(COCC12CC3CC(CC(C3)C1)C2)CN1CCc2ccccc2C1 (stereo not shown) [compound 16456321]	84.7	12.1 % of Negative Control
OC(COc1ccc(C23CC4CC(CC(C4)C2)C3)cc1)C[N+]1(Cc2ccccc2)CCOCC1 (stereo not shown) [compound 16456368]	101.6	2.8 % of Negative Control
Cc1ccc(-c2nnc(Cn3cnc4ccccc43)o2)cc1 [compound 16456942]	57.7	69.7 % of Negative Control
O=C(Nc1nc2ccccc2s1)C1CCCCN1S(=O)(=O)c1ccc(Cl)s1 (stereo not shown) [compound 16801811]	24.0	86.9 % of Negative Control
Cc1ccc(OCCOCC(O)CN2CCN(c3ccc(F)cc3)CC2)cc1C (stereo not shown) [compound 16804490]	17.9	94.5 % of Negative Control
O=C1C(NS(=O)(=O)c2ccccc2)=C/C(=N\S(=O)(=O)c2ccc(F)cc2)c2ccccc21 [compound 16805904]	-24.2	89.3 % of Negative Control
